Converted amounts (≈) assume the structure as drawn.
Experiments:
[1] = Antioxidant activity assessed as hydroxyl radical scavenging activity at 100 ug/ml after 60 mins; type: physicochemical; conditions: 1 h
[2] = Antioxidant activity assessed as DPPH free radical scavenging activity at 50 ug/ml after 20 mins by UV-vis spectrophotometry analysis; type: physicochemical
[3] = Antioxidant activity assessed as hydroxyl radical scavenging activity at 75 ug/ml after 60 mins; type: physicochemical; conditions: 1 h
Aspergillus niger = assay: Antifungal activity against Aspergillus niger assessed as growth inhibition incubated for 72 hrs at 37 degC by broth dilution method; type: functional
[4] = Antioxidant activity assessed as DPPH free radical scavenging activity at 100 ug/ml after 20 mins by UV-vis spectrophotometry analysis; type: physicochemical
[5] = Antioxidant activity assessed as DPPH free radical scavenging activity at 25 ug/ml after 20 mins by UV-vis spectrophotometry analysis; type: physicochemical
[6] = Antioxidant activity assessed as DPPH free radical scavenging activity at 75 ug/ml after 20 mins by UV-vis spectrophotometry analysis; type: physicochemical
Escherichia coli = assay: Antibacterial activity against Escherichia coli assessed as growth inhibition incubated for 24 hrs at 37 degC by broth dilution method; type: functional
Staphylococcus aureus = assay: Antibacterial activity against Staphylococcus aureus assessed as growth inhibition incubated for 24 hrs at 37 degC by broth dilution method; type: functional
Candida albicans = assay: Antifungal activity against Candida albicans assessed as growth inhibition incubated for 72 hrs at 37 degC by broth dilution method; type: functional
Pseudomonas aeruginosa = assay: Antibacterial activity against Pseudomonas aeruginosa assessed as growth inhibition incubated for 24 hrs at 37 degC by broth dilution method; type: functional
Aspergillus flavus = assay: Antifungal activity against Aspergillus flavus assessed as growth inhibition incubated for 72 hrs at 37 degC by broth dilution method; type: functional

Row | SMILES | inhibition (INH) [1] [%] | inhibition (INH) [2] [%] | inhibition (INH) [3] [%] | MIC90 (Aspergillus niger) [µg/mL] | inhibition (INH) [4] [%] | inhibition (INH) [5] [%] | inhibition (INH) [6] [%] | MIC90 (Escherichia coli) [µg/mL] | MIC90 (Staphylococcus aureus) [µg/mL] | MIC90 (Candida albicans) [µg/mL] | MIC90 (Pseudomonas aeruginosa) [µg/mL] | MIC90 (Aspergillus flavus) [µg/mL]
1 | COc1ccc(-n2cc(C=O)c(-c3cc4c(C)cc(=O)oc4c(-c4nn(-c5ccc(OC)cc5)cc4C=O)c3O)n2)cc1 | 35.13 | 17.87 | 29.4 | 25 (≈ 43.4 µM) | 24.59 | 14.2 | 21.14 | 50 (≈ 86.7 µM) | 50 (≈ 86.7 µM) | 50 (≈ 86.7 µM) | 12.5 (≈ 21.7 µM) | 50 (≈ 86.7 µM)
2 | Cc1cccc(-n2cc(C=O)c(-c3cc4c(C)cc(=O)oc4c(-c4nn(-c5cccc(C)c5)cc4C=O)c3O)n2)c1 | 30.1 | 16.4 | 26.49 | 75 (≈ 138 µM) | 24.02 | 13.24 | 18.78 | 50 (≈ 91.8 µM) | 75 (≈ 138 µM) | 50 (≈ 91.8 µM) | 25 (≈ 45.9 µM) | 75 (≈ 138 µM)
3 | Cc1cc(=O)oc2c(-c3nn(-c4ccccc4)cc3C=O)c(O)c(-c3nn(-c4ccccc4)cc3C=O)cc12 | 30.04 | 17.34 | 25.9 | 50 (≈ 96.8 µM) | 23.6 | 15.1 | 20.08 | 50 (≈ 96.8 µM) | 50 (≈ 96.8 µM) | 50 (≈ 96.8 µM) | 50 (≈ 96.8 µM) | 75 (≈ 145 µM)
4 | COc1ccc(N/N=C(\C)c2cc3c(C)cc(=O)oc3c(/C(C)=N/Nc3ccc(OC)cc3)c2O)cc1 | 33.01 | 17.17 | 26.36 | 12.5 (≈ 25 µM) | 22.4 | 14.57 | 19.7 | 12.5 (≈ 25 µM) | 25 (≈ 49.9 µM) | 50 (≈ 99.9 µM) | 12.5 (≈ 25 µM) | 25 (≈ 49.9 µM)
5 | C/C(=N\Nc1ccc(F)cc1)c1cc2c(C)cc(=O)oc2c(/C(C)=N/Nc2ccc(F)cc2)c1O | 26.6 | 11.69 | 17.33 | 50 (≈ 105 µM) | 17.45 | 8.49 | 14.01 | 50 (≈ 105 µM) | 75 (≈ 157 µM) | 75 (≈ 157 µM) | 50 (≈ 105 µM) | 75 (≈ 157 µM)
6 | C/C(=N\Nc1cccc(C)c1)c1cc2c(C)cc(=O)oc2c(/C(C)=N/Nc2cccc(C)c2)c1O | 30.78 | 11.8 | 24.22 | 75 (≈ 160 µM) | 17.29 | 10.92 | 13.97 | 50 (≈ 107 µM) | 50 (≈ 107 µM) | 50 (≈ 107 µM) | 25 (≈ 53.4 µM) | 50 (≈ 107 µM)
7 | C/C(=N\Nc1ccc(Cl)cc1)c1cc2c(C)cc(=O)oc2c(/C(C)=N/Nc2ccc(Cl)cc2)c1O | 30.75 | 14.75 | 23.49 | 25 (≈ 49.1 µM) | 20.62 | 10.73 | 17.41 | 50 (≈ 98.2 µM) | 50 (≈ 98.2 µM) | 50 (≈ 98.2 µM) | 25 (≈ 49.1 µM) | 50 (≈ 98.2 µM)
8 | Cc1ccc(-n2cc(C=O)c(-c3cc4c(C)cc(=O)oc4c(-c4nn(-c5ccc(C)cc5)cc4C=O)c3O)n2)cc1 | 31.48 | 17.28 | 27.07 | 50 (≈ 91.8 µM) | 24.56 | 16 | 20.75 | 50 (≈ 91.8 µM) | 75 (≈ 138 µM) | 50 (≈ 91.8 µM) | 25 (≈ 45.9 µM) | 75 (≈ 138 µM)
9 | Cc1cc(=O)oc2c(-c3nn(-c4ccc(Cl)cc4)cc3C=O)c(O)c(-c3nn(-c4ccc(Cl)cc4)cc3C=O)cc12 | 32.07 | 17.55 | 24.77 | 50 (≈ 85.4 µM) | 23.61 | 15.58 | 20.63 | 25 (≈ 42.7 µM) | 50 (≈ 85.4 µM) | 100 (≈ 171 µM) | 25 (≈ 42.7 µM) | 50 (≈ 85.4 µM)
10 | C/C(=N\Nc1ccccc1)c1cc2c(C)cc(=O)oc2c(/C(C)=N/Nc2ccccc2)c1O | 29.65 | 16.96 | 24.36 | 50 (≈ 114 µM) | 22.22 | 15.03 | 19.35 | 25 (≈ 56.8 µM) | 50 (≈ 114 µM) | 50 (≈ 114 µM) | 25 (≈ 56.8 µM) | 50 (≈ 114 µM)
11 | Cc1cc(=O)oc2c(-c3nn(-c4ccc(F)cc4)cc3C=O)c(O)c(-c3nn(-c4ccc(F)cc4)cc3C=O)cc12 | 29.47 | 14.93 | 21.27 | 75 (≈ 136 µM) | 19.44 | 11.62 | 17.69 | 75 (≈ 136 µM) | 75 (≈ 136 µM) | 100 (≈ 181 µM) | 50 (≈ 90.5 µM) | 75 (≈ 136 µM)
12 | C/C(=N\Nc1ccc(C)cc1)c1cc2c(C)cc(=O)oc2c(/C(C)=N/Nc2ccc(C)cc2)c1O | 30.52 | 16.65 | 25.54 | 50 (≈ 107 µM) | 22.45 | 14.29 | 19.43 | 25 (≈ 53.4 µM) | 25 (≈ 53.4 µM) | 50 (≈ 107 µM) | 25 (≈ 53.4 µM) | 25 (≈ 53.4 µM)
13 | O=C1O[C@H]([C@@H](O)CO)C(O)=C1O [ASCORBIC ACID] |  | 16.87 |  |  | 24.25 | 15.08 | 21.98 |  |  |  |  | 
14 | COc1ccc(O)c(C(C)(C)C)c1.COc1ccc(O)cc1C(C)(C)C [BUTYLATED HYDROXYANISOLE] | 32.03 |  | 25.58 |  |  |  |  |  |  |  |  | 
15 | O=C(O)c1cn(C2CC2)c2cc(N3CCNCC3)c(F)cc2c1=O [CIPROFLOXACIN] |  |  |  |  |  |  |  | 25 (≈ 75.4 µM) | 25 (≈ 75.4 µM) |  | 12.5 (≈ 37.7 µM) | 
16 | OC(Cn1cncn1)(Cn1cncn1)c1ccc(F)cc1F [FLUCONAZOLE] |  |  |  | 25 (≈ 81.6 µM) |  |  |  |  |  | 50 (≈ 163 µM) |  | 25 (≈ 81.6 µM)

Source: ChEMBL document CHEMBL3745592, “Synthesis of novel coumarin appended bis(formylpyrazole) derivatives: Studies on their antimicrobial and antioxidant activities” (Bioorg Med Chem Lett, 2016)
